Experiment [1] relates to anaesthetised, hyperventilated Domperidone-treated lamb. Briefly: Periodic breathing induced by transient hyperventilation in the anaesthetised Domperidone-treated lamb (model of elevated loop gain). In kind it is in vivo. Conditions: for effect on average value of loop gain across the epoch / effect on epoch duration / effect on number of cycles in epochs of periodic breathing following hyperventilation / number of cycles of ventilation and apnea in the epoch of periodic breathing / duration of the epoch of periodic breathing / average value of loop gain across the epoch of periodic breathing: 5 mg/kg i.v.; for effect on average value of loop gain across the epoch / effect on epoch duration / effect on number of cycles in epochs of periodic breathing following hyperventilation: before vs after drug, Retigabine lambs 1-3, Flupirtine lamb 4; for number of cycles of ventilation and apnea in the epoch of periodic breathing / duration of the epoch of periodic breathing / average value of loop gain across the epoch of periodic breathing: single lamb; for number of cycles of ventilation and apnea in the epoch of periodic breathing / duration of the epoch of periodic breathing: about 1 hour after drug; for number of cycles of ventilation and apnea in the epoch of periodic breathing: same lamb before drug: 30 (Retigabine lamb), 24 (Flupirtine lamb); for duration of the epoch of periodic breathing: same lamb before drug: 6 minutes (Retigabine lamb), 320 seconds (Flupirtine lamb); for average value of loop gain across the epoch of periodic breathing: duty ratio method, same lamb before drug: 1.71 (Retigabine lamb), 1.51 (Flupirtine lamb). An excerpt:
To determine the effects of the KCNQ channel openers Retigabine and Flupirtine on loop gain and periodic breathing in the anaesthetised, hyperventilated Domperidone-treated lamb.
This animal model provides a robust preparation to test the effects of candidate drugs for the treatment of disordered breathing associated with increased peripheral chemosensitivity and elevated loop gain.
Young lambs (Merino/Border-Leicester cross, 14-18 kg) were instrumented surgically and maintained through the experimental protocol according to the method described by Edwards et al. (2008). Briefly, a non-occlusive catheter was placed in the left jugular vein for the induction of anaesthesia using a loading dose of ketamine hydrochloride (5 mg/kg) followed by alpha-chloralose (80 mg/kg as a starting bolus, then as a continuous infusion at 20 mg/kg/hr. Supplemental doses of alpha-chloralose were administered as needed to maintain adequate anaesthesia. A glucose-saline solution was infused through the same catheter to maintain fluid levels (5% glucose in 0.9% saline at 4 ml/kg/hr). A tracheal tube was inserted and connected to a dual intermittent mechanical ventilator (IMV)/high frequency oscillatory ventilator (Humming2; BMO-20H) used in the IMV mode. Use of a 4-way Hans Rudolf valve enabled the lamb to be ventilated artificially or to breathe spontaneously from a circuit through which a flow of gas was maintained at 45 L/min, or from the room air. Measurements of respiratory flow, tidal volume and end-expired gases were made on the tracheal line. Respiratory flow was measured using a Hans Rudolph (3500A) pneumotachograph that was linear up to 35 l/min, in conjunction with a Gaeltec 8T-2 differential pressure transducer connected to a carrier amplifier (Hewlett Packard 8805B) and thence to an HP-8815A electronic integrator to determine tidal volume. Non-occlusive catheters were placed in the right jugular vein and a carotid artery for the intravenous administration of drugs, the sampling of venous and arterial blood gases and the monitoring of blood pressure. Arterial blood pressure was measured using a Micron MP-15 blood pressure transducer connected to a Hewlett-Packard 8805B carrier amplifier. A rectal probe was used to monitor body temperature, which was maintained within the range of 40.0±1.0° C. using an overhead radiant heater. Arterial oxygen saturation was measured continuously using a Nellcor pulse oximeter (Model N-200E) with the probe placed in the trans-mandibular position in such a way that the optical path included the soft tissues of the jaw but excluded the tongue.
Domperidone (0.5 mg/kg in 30 ml 0.1% lactic acid), Flupirtine (as Flupirtine maleate, 5 mg/kg in 30 ml distilled water) and Retigabine (5 mg/kg in 30 ml distilled water) were each administered over a period of 5 minutes via the jugular vein catheter.
Lambs breathed room air (atmospheric) throughout the experimental protocol. Domperidone was administered at the commencement of the experimental protocol. […] Epochs of periodic breathing were induced by switching the tracheal tube to the ventilator circuit and hyperventilating the lamb with air for at least 5 minutes to reduce end tidal CO2 to a level that produced apnea when the ventilator was switched off. […] Typically, an extended epoch of periodic breathing followed the post-hyperventilation apnea. Once the ventilation parameters for achieving a post-hyperventilation apnea as described above were established for a particular animal, the baseline ventilatory response to hyperventilation was determined by performing two standardised hyperventilation procedures 10-15 minutes apart. The test drug (Flupirtine or Retigabine) was then administered and, approximately 1 hour later, another two hyperventilation procedures were performed 10-15 minutes apart.
Minute ventilation was calculated breath-by-breath using the breath duration determined from the respiratory flow trace and the tidal volume signal from the integrator. […]

In the next experiment the test system is young lambs. Conditions: cited from earlier work.

Consider `O=c1[nH]c2ccccc2n1CCCN1CCC(n2c(=O)[nH]c3cc(Cl)ccc32)CC1` [Domperidone], for which the “epochs of periodic breathing on hyperventilation” value in experiment [1] (Domperidone 0.5 mg/kg alone, 30 minutes or more after administration) is given as “reliably elicited epochs of periodic breathing”. Besides, in experiment [1] (Domperidone 0.5 mg/kg alone, before test drug), the “typical duration of epochs of periodic breathing” value was 2 to 5 min. Moreover, the “duration of blocking effect” value in the experiment on young lambs (0.5 mg/kg dose to a lamb, previous research (Kressin et al. 1986)) is “at least three hours”. For the same compound, the “effect on loop gain of the respiratory control system” value with young lambs (young lambs, Edwards et al. (2008)) was “increases”.

`CCOC(=O)Nc1ccc(NCc2ccc(F)cc2)nc1N` [Flupirtine]: in experiment [1], the “effect on average value of loop gain across the epoch” value is “reduced”; the “effect on epoch duration” value is given as “reduced”; the “effect on number of cycles in epochs of periodic breathing following hyperventilation” value is given as “significantly reduced”; the “number of cycles of ventilation and apnea in the epoch of periodic breathing” value stood at 9 cycles. Further, in experiment [1], the “duration of the epoch of periodic breathing” value was 130 s and the “average value of loop gain across the epoch of periodic breathing” value turned out to be 1.16.

As to `CCOC(=O)Nc1ccc(NCc2ccc(F)cc2)cc1N` [Retigabine], in experiment [1], the “effect on average value of loop gain across the epoch” value is on record as “reduced”; the “effect on epoch duration” value is listed as “reduced”; the “effect on number of cycles in epochs of periodic breathing following hyperventilation” value is listed as “significantly reduced”; the “number of cycles of ventilation and apnea in the epoch of periodic breathing” value is on record as 6 cycles. Further, in experiment [1], the “duration of the epoch of periodic breathing” value came out at 115 s and the “average value of loop gain across the epoch of periodic breathing” value was 1.24.
